{
  "source": "patent US20080261891A1",
  "about": "“COMPOSITIONS AND METHODS FOR USING SYRINGOPEPTIN 25A AND RHAMNOLIPIDS” (Utah State University, priority 2007, published 2008)",
  "assay_type_in_all_cases": "cell-based",
  "key": {"[1]": {"system": "Aeromonas caviae", "test": "MIC, microbroth dilution method", "settings": "48 h", "protocol": "(§1) The MIC of the compounds for the organisms was determined by the microbroth dilution method, described hereafter. The microorganisms were prepared as described above and resuspended in their optimal growth media (Table 1) to ˜10^5 CFU/mL containing SP 25A at 2, 3, 4, 5, 6, 7, 8, 16, 32 and 50 μg/mL in a total volume of 550 μL. RL concentrations of 2, 3, 4, 5, 6, 7, 8, 16, 32 and 60 μg/mL in a total volume of 550 μL were tested in a 48-well plate (Corning, N.Y.). The plates were incubated at optimal growth conditions for the respective organism and monitored for an increase in OD600 after 48 h by a Perkin-Elmer (HTS 7000) plate reader (Downers Grove, Ill.). […] Negative controls (no inhibition of growth) were included using saline in the assay for each compound. The lowest concentration at which there was no increase in OD over 48 h was reported as the MIC. Each MIC was determined in replicate with three separate tests per replication. The results of the three tests were averaged for each replicate."}, "[2]": {"system": "Bacillus cereus", "test": "MIC, microbroth dilution method", "settings": "48 h", "protocol": "as §1"}, "[3]": {"system": "Bacillus megaterium", "test": "MIC, microbroth dilution method", "settings": "48 h", "protocol": "as §1"}, "[4]": {"system": "Bacillus subtilis", "test": "MIC, microbroth dilution method", "settings": "48 h", "protocol": "as §1"}, "[5]": {"system": "Citrobacter fruendii", "test": "MIC, microbroth dilution method", "settings": "48 h", "protocol": "as §1"}, "[6]": {"system": "Clostridium sporogenes", "test": "MIC, microbroth dilution method", "settings": "48 h", "protocol": "as §1"}, "[7]": {"system": "Enterobacter aerogenes", "test": "MIC, microbroth dilution method", "settings": "48 h", "protocol": "as §1"}, "[8]": {"system": "Erwinia herbicola", "test": "MIC, microbroth dilution method", "settings": "48 h", "protocol": "as §1"}, "[9]": {"system": "Eschereschia coli K12", "test": "MIC, microbroth dilution method", "settings": "48 h", "protocol": "as §1"}, "[10]": {"system": "Flavobacterium devorans", "test": "MIC, microbroth dilution method", "settings": "48 h", "protocol": "as §1"}, "[11]": {"system": "Klebsiella pneumoniae subsp. Pneumoniae", "test": "MIC, microbroth dilution method", "settings": "48 h", "protocol": "as §1"}, "[12]": {"system": "Lactobacillus acidophilus", "test": "MIC, microbroth dilution method", "settings": "48 h", "protocol": "as §1"}, "[13]": {"system": "Lactobacillus plantarum", "test": "MIC, microbroth dilution method", "settings": "48 h", "protocol": "as §1"}, "[14]": {"system": "Lactococcus lactis subsp. Lactis", "test": "MIC, microbroth dilution method", "settings": "48 h", "protocol": "as §1"}, "[15]": {"system": "Listeria innocua", "test": "MIC, microbroth dilution method", "settings": "48 h", "protocol": "as §1"}, "[16]": {"system": "Listeria monocytogenes", "test": "MIC, microbroth dilution method", "settings": "48 h", "protocol": "as §1"}, "[17]": {"system": "Micrococcus luteus", "test": "MIC, microbroth dilution method", "settings": "48 h", "protocol": "as §1"}, "[18]": {"system": "Salmonella enteridis", "test": "MIC, microbroth dilution method", "settings": "48 h", "protocol": "as §1"}, "[19]": {"system": "Salmonella typhimurium", "test": "MIC, microbroth dilution method", "settings": "48 h", "protocol": "as §1"}, "[20]": {"system": "Streptococcus agalacticae", "test": "MIC, microbroth dilution method", "settings": "48 h", "protocol": "as §1"}, "[21]": {"system": "Streptococcus mutans", "test": "MIC, microbroth dilution method", "settings": "48 h", "protocol": "as §1"}, "[22]": {"system": "Streptococcus suis", "test": "MIC, microbroth dilution method", "settings": "48 h", "protocol": "as §1"}, "[23]": {"system": "Enterococcus faecalis", "settings": "Enterococcus faecalis (multiple drug resistant); 48 h", "protocol": "(§2) In order to determine the antimicrobial efficacy of RLs and SPs they were tested against several bacterial strains, some with multiple drug resistance. The multiple drug resistant bacterial strains used were E. faecalis and S. aureus. […] A combination of RLs and SPs were tested against L. monocytogenes.\nas §1"}, "[24]": {"system": "Staphylococcus aureus subsp. aureus", "settings": "Staphylococcus aureus subsp. aureus (multiple drug resistant); 48 h", "protocol": "as §2, §1"}, "[25]": {"system": "Listeria monocytogenes EGDe", "test": "Cell growth (cell density, OD600) during treatment over 120 min", "protocol": "FIG. 6B includes a graph that illustrates the amount of cell growth in response to being treated with SP 25A, RLs and saline (control) over a period of 120 min. […] The lack of positive correlation between membrane permeabilization (FIG. 6A) and inhibition of cell growth (FIG. 6B) of SP 25A inferred that the pore forming model alone was not be responsible for all of the antimicrobial properties of SP 25A.\nListeria monocytogenes EGDe was thawed and subcultured twice at 37° C. in brain heart infusion broth (BHI) (DIFCO, Franklin Lanes, N.J.). An overnight culture was diluted 10 fold in sterile medium and grown for 4 h to an OD600 of 1.7, which corresponded to ˜10^9 cfu/mL. The cell preparation was exposed to either 3 μg/mL SP 25A or 6 μg/mL RLs. Treatment with both RLs and SP 25A caused membrane permeabilization (FIG. 6A), but each reduced cell growth (FIG. 6B) of L. monocytogenes by different amounts. […]\nTotal RNA was extracted from a 1.8 mL culture immediately before treating the cells with SP 25A and RLs (T0), after 30 min (T30), and at 120 min (T120) of exposure at 37° C. Simultaneously, the cell density was measured at OD600. Membrane permeabilization was determined by measuring the PI uptake. […] Each well contained five probes for each open reading frame in the entire genome."}},
  "note": "“Also recorded” adds a separate entry of the source. Where a SMILES comes first, the peptide text is derived from it. Bridges are numbered along the chain shown (N, C = ends). [ ]: non-standard residue; d: D form. The star is where a group is joined. ξ: configuration not given here. Decanoyl(3ξ-OH) = CCCCCCCC(O)CC(=O)*; Dab = NCC[CH](N)C(=O)O; Dhb = C/C=C(\\N)C(=O)O",
  "data": [
    {"smiles": "C/C=C(\\NC(=O)C(C)NC(=O)C(C)NC(=O)C(CC(C)C)NC(=O)C(NC(=O)C(C)NC(=O)C(C)NC(=O)C(NC(=O)C1CCCN1C(=O)/C(=C/C)NC(=O)CC(O)CCCCCCC)C(C)C)C(C)C)C(=O)NC(C(=O)N/C(=C\\C)C(=O)NC(C)C(=O)NC(C(=O)NC(C)C(=O)NC(C)C(=O)N/C(=C\\C)C(=O)NC1C(=O)NC(CO)C(=O)NC(C)C(=O)NC(C(C)C)C(=O)NC(C)C(=O)NC(CCN)C(=O)NC(CCN)C(=O)NC(Cc2ccc(O)cc2)C(=O)OC1C)C(C)C)C(C)C", "note": "(centres unmarked) [SP 25A, syringopeptin 25A] ({Decanoyl(3ξ-OH)}-[Dhb]PVAAVLAA[Dhb]V[Dhb]AVAA[Dhb]TSAVA[Dab][Dab]Y; ester 18-C; configuration not given here)", "values": [
      {"measurement": "MIC", "setting": "[1]", "value": ">50", "unit": "µg/mL"},
      {"measurement": "MIC", "setting": "[2]", "value": 4, "unit": "µg/mL"},
      {"measurement": "MIC", "setting": "[3]", "value": 3, "unit": "µg/mL"},
      {"measurement": "MIC", "setting": "[4]", "value": 4, "unit": "µg/mL"},
      {"measurement": "MIC", "setting": "[5]", "value": ">50", "unit": "µg/mL"},
      {"measurement": "MIC", "setting": "[6]", "value": 4, "unit": "µg/mL"},
      {"measurement": "MIC", "setting": "[7]", "value": ">50", "unit": "µg/mL"},
      {"measurement": "MIC", "setting": "[8]", "value": ">50", "unit": "µg/mL"},
      {"measurement": "MIC", "setting": "[9]", "value": ">50", "unit": "µg/mL"},
      {"measurement": "MIC", "setting": "[10]", "value": 4, "unit": "µg/mL"},
      {"measurement": "MIC", "setting": "[11]", "value": ">50", "unit": "µg/mL"},
      {"measurement": "MIC", "setting": "[12]", "value": 8, "unit": "µg/mL"},
      {"measurement": "MIC", "setting": "[13]", "value": 16, "unit": "µg/mL"},
      {"measurement": "MIC", "setting": "[14]", "value": 4, "unit": "µg/mL"},
      {"measurement": "MIC", "setting": "[15]", "value": 3, "unit": "µg/mL"},
      {"measurement": "MIC", "setting": "[16]", "value": 3, "unit": "µg/mL"},
      {"measurement": "MIC", "setting": "[17]", "value": 4, "unit": "µg/mL"},
      {"measurement": "MIC", "setting": "[18]", "value": ">50", "unit": "µg/mL"},
      {"measurement": "MIC", "setting": "[19]", "value": ">50", "unit": "µg/mL"},
      {"measurement": "MIC", "setting": "[20]", "value": 8, "unit": "µg/mL"},
      {"measurement": "MIC", "setting": "[21]", "value": 4, "unit": "µg/mL"},
      {"measurement": "MIC", "setting": "[22]", "value": 4, "unit": "µg/mL"},
      {"measurement": "MIC", "setting": "[23]", "value": 8, "unit": "µg/mL"},
      {"measurement": "MIC", "setting": "[24]", "value": 8, "unit": "µg/mL"},
      {"measurement": "growth of culture (cell density)", "setting": "[25]; 3 μg/mL SP 25A, during 120 min, control culture grew by 15.3%", "value": "did not grow"},
      {"measurement": "inhibition of cell growth", "setting": "[25]; in comparison to the saline control, 120 min", "value": "completely inhibited cell growth; also recorded: complete inhibition of cell growth"}
    ]}
  ]
}
